Molecules are shown by their SMILES.

Broadly, the mortality is the percentage killed.

What all share (format): in vivo
Series [1] relates to Tobacco cutworm (Spodoptera litura) larvae. In words: Test against tobacco cutworm (Spodoptera litura) larvae, leaf dip. The settings on record: active compound concentration 100 ppm; third instar larvae on dipped sweet potato leaves; after 7 days. The procedure:
(§1) Unless described otherwise, the test solutions were prepared as follows:
(§2) The active compound, 1 part by weight of the active compound was admixed with the solvent in the above described amount which contains the emulsifying agent in the above described amount. The mixture was then diluted with water to specific concentration.
(§3) In order to prepare the test solution containing the active compound, 1 part by weight of the active compound was admixed with 3 parts by weight of the solvent dimethyl formamide which contains 1 part by weight of the emulsifying agent polyoxyethylene alkylphenyl ether. This mixture is then diluted with water to the specific concentration.
(§4) Solvent: dimethyl formamide, 3 parts by weight; emulsifying agent: polyoxyethylene alkylphenyl ether, 1 part by weight
Leaves of sweet potato were immersed in the test solution at the appropriate concentration, and the leaves were dried in air. The leaves were then placed in a petri dish having a diameter of 9 cm, and ten Spodoptera litura at third instar larvae were released therein. The petri dishes were placed in a temperature-controlled chamber at 25° C. After 2 days and 4 days more sweet potato leaves were added. After 7 days, the number of dead larvae was counted to calculate the insecticidal activity. An insecticidal activity of 100% means that all larvae were killed, whereas an insecticidal activity of 0% means that no larva was killed. In the current test, the results of two petri dishes for each treatment were averaged.

In series [2] the test system is Cucurbit leaf beetle (Aulacophora femoralis). In words: Test against cucurbit leaf beetle (Aulacophora femoralis), leaf dip. The conditions noted are these: active compound concentration 100 ppm; second instar larvae on dipped cucumber leaves; after 7 days. Here is the method:
as §1, §2, §3, §4
Leaves of cucumber were immersed in the test solution at the appropriate concentration, and the leaves were dried in air. The leaves were then put in a plastic cup containing sterilized black soil and five Aulacophora femoralis at second instar larvae were released in the cup. The cups were placed in a temperature-controlled chamber at 25° C. After 7 days, the number of dead larvae was counted, and thus the insecticidal activity was calculated. An insecticidal activity of 100% means that all larvae were killed, whereas an insecticidal activity of 0% means that no larva was killed.

A further series concerns Ctenocephalides felis. The series can be described thus: Ctenocephalides felis-test (CTECFE). The settings on record: application rate 100 ppm in cattle blood, adult unfed fleas, after 2 days. The procedure:
(§5) Solvent: dimethyl sulfoxide
To produce a suitable preparation of active compound, 10 mg of active compound are dissolved in 0.5 ml solvent, and the concentrate is diluted with cattle blood to the desired concentration. Approximately 20 adult unfed (Ctenocephalides felis) are placed in flea chambers. The blood chamber, sealed with parafilm on the bottom, are filled with cattle blood supplied with compound solution and placed on top of the flea chamber, so that the fleas are able to suck the blood. The blood chamber is heated to 37° C. whereas the flea chamber is kept at room temperature. After 2 days mortality in % is determined. 100% means that all the fleas have been killed; 0% means that none of the fleas have been killed.

In series [3] the test system is Two-spotted spider mite (Tetranychus urticae). The series can be described thus: Test against two-spotted spider mite (Tetranychus urticae), spray. The conditions noted are these: active compound concentration 100 ppm; adult mites on kidney bean, sprayed; after 7 days. Here is the method:
as §1, §2, §3, §4
50 to 100 adult mites of Tetranychus urticae were inoculated to leaves of kidney bean at two-leaf stage planted in a pot of 6 cm in diameter. After one day, test solution at the appropriate concentration was sprayed thereon in a sufficient amount using a spray gun. After the spraying, the plant pot was placed inside a greenhouse, and after 7 days, the acaricidal activity was calculated. An acaricidal activity of 100% means that all mites were killed, whereas an acaricidal activity of 0% means that no mite was killed.

The test system of another series is Boophilus microplus. In words: Boophilus microplus (dip). The conditions noted are these: application rate 100 ppm; adult engorged female ticks dipped one minute; after 7 days. Here is the method:
Solvent: dimethylsulfoxid
To produce a suitable preparation of active compound, 10 mg of active compound are dissolved in 0.5 ml solvent, and the concentrate is diluted with water to the desired concentration. Eight to ten adult engorged female Boophilus microplus ticks are placed in perforated plastic beakers and immersed in aqueous compound solution for one minute. Ticks are transferred to a filter paper in a plastic tray. Egg deposition of fertile eggs is monitored after. After 7 days mortality in % is determined. 100% means that all the ticks have been killed; 0% means that none of the ticks have been killed.

The subject of another series is Musca domestica. The series can be described thus: Musca domestica-test. The conditions noted are these: application rate 100 ppm, adults, sugar/compound soaked sponge, after 2 days. Here is the method: as §5
To produce a suitable preparation of active compound, 10 mg of active compound are dissolved in 0.5 ml solvent, and the concentrate is diluted with water to the desired concentration. Prior to the assay, a piece of kitchen sponge is soaked with a mixture of sugar and compound solution and placed into a container. 10 adults (Musca domestica) are placed into the container and closed with a perforated lid. After 2 days mortality in % is determined. 100% means that all the flies have been killed; 0% means that none of the flies have been killed.

Series [4] concerns Lucilia cuprina 1st instar larvae. In words: Lucilia cuprina-test (LUCICU 48 h). The conditions noted are these: application rate 100 ppm, 1st instar larvae on minced horse meat, after 2 days, read-out: activity (percentage of larval mortality). The procedure: Species: Lucilia cuprina 1st instar larvae (age 24 hrs)
as §5
10 mg active compound are dissolve in 0.5 ml Dimethylsulfoxid. Serial dilutions are made to obtain the desired rates. Approximately 20 Lucilia cuprina 1st instar larvae are transferred into a test tube containing 1 cm^3 of minced horse meat and 0.5 ml aqueous dilution of test compound. After 2 days percentage of larval mortality are recorded. 100% efficacy=all larvae are killed, […].

Take `Cc1cc(N2CC(c3cc(C(F)(F)F)cc(C(F)(F)F)c3)(C(F)(F)F)OC2=O)ccc1CNC(=O)CC(F)(F)F` (centres unmarked) [Compound 1-161]: the insecticidal activity in series [1] and in series [2] was 100% each time. Moreover, in the series on Ctenocephalides felis, the “activity (mortality in %)” value stood at 80%.
Take `CCC(=O)NCc1ccc(N2CC(c3cc(Cl)c(Cl)c(Cl)c3)(C(F)(F)F)OC2=O)cc1` (centres unmarked) [Compound 1-59]: the insecticidal activity in series [1] and in series [2] was 100% in each case. Further, the “activity (mortality in %)” value in the series with Ctenocephalides felis is on record as 95%.
For the molecule `O=C(CC(F)(F)F)NCc1ccc(N2CC(c3cc(Cl)cc(Cl)c3)(C(F)(F)F)OC2=O)cc1C(F)(F)F` (centres unmarked) [Compound 1-7], the insecticidal activity in series [1] and in series [2] was 100% throughout. Also, the acaricidal activity in series [3] turned out to be 100%. Also, in the series with Ctenocephalides felis, the “activity (mortality in %)” value is given as 95%.
With `O=C(CC(F)(F)F)NCc1ccc(N2CC(c3cc(C(F)(F)F)cc(C(F)(F)F)c3)(C(F)(F)F)OC2=O)cc1Cl` (centres unmarked) [Compound 1-147], the insecticidal activity in series [1] and in series [2] was 100% throughout. Moreover, the acaricidal activity in series [3] was 100%. Besides, the “activity (mortality in %)” value with Ctenocephalides felis amounted to 95%.
On to `Cc1cc(N2CC(c3cc(C(F)(F)F)cc(C(F)(F)F)c3)(C(F)(F)F)OC2=O)ccc1CNC(=O)C[S+](C)[O-]` (centres unmarked) [Compound 1-163], for which the “activity (mortality in %)” value in the series with Ctenocephalides felis came out at 80%.
Consider `CC(=O)NCc1ccc(N2CC(c3cc(Cl)cc(Cl)c3)(C(F)(F)F)OC2=O)cc1C(F)(F)F` (centres unmarked) [Compound 1-2], for which the insecticidal activity in series [1] and in series [2] was 100% in each case. Further, the “activity (mortality in %)” value came out at 80% in the series on Boophilus microplus and 95% in the series with Ctenocephalides felis.
In the case of `O=C(CC1CC1)NC1CCc2cc(N3CC(c4cc(Cl)c(Cl)c(Cl)c4)(C(F)(F)F)OC3=O)ccc21` (centres unmarked) [Compound 4-34], the insecticidal activity in series [1] and in series [2] was 100% each time. This molecule also showed an acaricidal activity in series [3] of 100%.
For the molecule `O=C(CC(F)(F)F)NCc1ccc(N2CC(c3cc(C(F)(F)F)cc(C(F)(F)F)c3)(C(F)(F)F)OC2=O)cc1C(F)(F)F` (centres unmarked) [Compound 1-133], the insecticidal activity in series [1] and in series [2] was 100% in each case. Besides, the acaricidal activity in series [3] stood at 100%.
As for `CC(=O)NCc1ccc(N2CC(c3cc(Cl)c(Cl)c(Cl)c3)(C(F)(F)F)OC2=O)cc1C(F)(F)F` (centres unmarked) [Compound 1-16], the insecticidal activity in series [1] and in series [2] was 100% each time. Further, the acaricidal activity in series [3] is recorded as 100%. For the same molecule, the results for the “activity (mortality in %)” value in the series on Boophilus microplus and in the series on Musca domestica were 80% and 90%, respectively.
On to `CCC(=O)NCc1ccc(N2CC(c3cc(C(F)(F)F)cc(C(F)(F)F)c3)(C(F)(F)F)OC2=O)cc1C(F)(F)F` (centres unmarked) [Compound 1-129], for which the insecticidal activity in series [1] and in series [2] was 100% each time. In series [3], this molecule registered an acaricidal activity of 100%.
Turning to `Cc1cc(N2CC(c3cc(C(F)(F)F)cc(C(F)(F)F)c3)(C(F)(F)F)OC2=O)ccc1CNC(=O)C1CC1` (centres unmarked) [Compound 1-159], the insecticidal activity in series [1] and in series [2] was 100% each time. In addition, the figures for the “activity (mortality in %)” value in the series on Ctenocephalides felis and in the series on Musca domestica were 95% and 90%, respectively.
With `CCC(=O)NCc1ccc(N2CC(c3cc(Cl)cc(Cl)c3)(C(F)(F)F)OC2=O)cc1C(F)(F)F` (centres unmarked) [Compound 1-3, N-{4-[5-(3,5-dichlorophenyl)-2-oxo-5-(trifluoromethyl)-1,3-oxazolin-3-yl]-2-(trifluoromethyl)benzyl}propane amide], the insecticidal activity in series [1] and in series [2] was 100% each time. In addition, in series [3], the acaricidal activity worked out at 100%. Also, the mortality at 100 ppm amounted to 100% in series [4]; 95% in the series with Ctenocephalides felis (Ctenocephalides felis, 48 h); 100% in the series on Musca domestica (Musca domestica, 48 h).
Take `CS(=O)(=O)CC(=O)NCc1ccc(N2CC(c3cc(C(F)(F)F)cc(C(F)(F)F)c3)(C(F)(F)F)OC2=O)cc1C(F)(F)F` (centres unmarked) [Compound 1-136]: the insecticidal activity in series [1] and in series [2] was 100% each time. In series [3], the acaricidal activity turned out to be 100%.
Turning to `O=C(NCc1ccc(N2CC(c3cccc(C(F)(F)F)c3)(C(F)(F)F)OC2=O)cc1C(F)(F)F)C1CC1` (centres unmarked) [Compound 1-75], the insecticidal activity in series [1] and in series [2] was 100% each time. The molecule also came in with an acaricidal activity in series [3] of 100%.
Turning to `CCC(=O)NCc1ccc(N2CC(c3cccc(C(F)(F)F)c3)(C(F)(F)F)OC2=O)cc1C(F)(F)F` (centres unmarked) [Compound 1-73], the insecticidal activity in series [1] and in series [2] was 100% in each case. For the same molecule, in the series with Musca domestica, the “activity (mortality in %)” value stood at 80%.
Regarding `CCC(=O)NCc1ccc(N2CC(c3cc(Cl)c(Cl)c(Cl)c3)(C(F)(F)F)OC2=O)cc1C(F)(F)F` (centres unmarked) [Compound 1-17], the insecticidal activity in series [1] and in series [2] was 100% in each case. Moreover, in series [3], the acaricidal activity was 100%. Also, the results for the “activity (mortality in %)” value in the series with Boophilus microplus and with Musca domestica were 100% and 90%, respectively.
On to `O=C(NCc1ccc(N2CC(c3cc(C(F)(F)F)cc(C(F)(F)F)c3)(C(F)(F)F)OC2=O)cc1Cl)C1CC1` (centres unmarked) [Compound 1-145], for which the insecticidal activity in series [1] and in series [2] was 100% in each case. Further, the acaricidal activity in series [3] was 100%. The “activity (mortality in %)” value in the series with Ctenocephalides felis is listed as 95%; in the series with Musca domestica, 80%.
Turning to `CCC(=O)NC1CCc2cc(N3CC(c4cc(Cl)c(Cl)c(Cl)c4)(C(F)(F)F)OC3=O)ccc21` (centres unmarked) [Compound 4-31], the insecticidal activity in series [1] and in series [2] was 100% each time. In series [3], the acaricidal activity was found to be 100%.
